The text below walks through data of patent US10954268B2, “Method of treating melanocortin-4 receptor-associated disorders in heterozygous carriers” (RHYTHM PHARMACEUTICALS, INC., priority 2011, dated 2021).

Bridges are numbered along the chain shown (N, C = ends). [ ]: non-standard residue; d: D form.

In the experiment the test system is Diet induced obesity (DIO) littermate C57B1/6J mice. Put plainly: Treatment of obese MC4R+/− heterozygotic mice by Alzet pump infusion, body weight measured. The format is in vivo. The conditions noted are these: Alzet pump infusion 1200 nmol/kg/day for 8 days, FIG. 3. How it is done: Body weight was measured.
The weight change due to the exposure to the compound of SEQ ID NO: 140 in mice that are either wild type for the MC4R gene, or express only a single MC4R allele, or mice without any MC4R protein expression were compared.

As for “Ac-Arg-c(Cys-D-Ala-His-D-Phe-Arg-Trp-Cys)-NH2 (Ac-RC[dA]H[dF]RWC-NH2; disulfide 2-8 (inferred)) [SEQ ID NO: 140]”, the “weight loss over the treatment period” value (DIO homozygous MC4R knockout mice (−/−), no MC4R expression) is recorded as “did not show significant weight loss”. Further, the “body weight lost over the treatment period” value (DIO mice heterozygous for the MC4R gene (+/−)) was “about 1 gram”.
